Reference: patent US20220411381A1, “PYRIMIDINEDIONE DERIVATIVES” (Bayer Aktiengesellschaft, priority 2019, published 2022)
Read-outs that look alike come from different tables or passages of the source.

What was measured:
[1] = molecular target: T1, recombinant human BCAT1 enzyme (Homo sapiens, UniProt P54687); test: In vitro assay 1a: BCAT1 biochemical assay (coupled LeuDH/NADH fluorescence readout)
T1 construct: purchased ATGen (South Korea) ATGP1479
T1 sequence (P54687 1-386): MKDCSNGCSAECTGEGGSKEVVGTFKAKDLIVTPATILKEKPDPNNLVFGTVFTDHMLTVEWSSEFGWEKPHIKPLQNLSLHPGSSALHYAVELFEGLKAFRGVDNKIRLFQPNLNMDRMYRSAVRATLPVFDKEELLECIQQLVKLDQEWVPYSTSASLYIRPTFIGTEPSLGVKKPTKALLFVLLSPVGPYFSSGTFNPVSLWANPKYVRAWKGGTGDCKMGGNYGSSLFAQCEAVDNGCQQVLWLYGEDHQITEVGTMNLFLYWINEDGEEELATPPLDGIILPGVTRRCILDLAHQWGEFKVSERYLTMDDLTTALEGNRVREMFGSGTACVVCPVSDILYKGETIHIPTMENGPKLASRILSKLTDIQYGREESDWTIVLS
Method: (§1) In Vitro Assay 1a and 1b: BCAT1 and BCAT2 Biochemical Assay
(§2) BOAT (Branched chain amino acid transferase) catalyzes transamination of the branched chain amino acid leucine to α-ketoisocaproate (KIC). The BOAT enzymatic reaction was measured in a coupled readout with leucine dehydrogenase (LeuDH) which catalyzes the Nicotinamide adenine dinucleotide (NADH) dependent reduction of KIC to leucine. NADH consumption is measured by fluorescent readout.
(§3) The biochemical reactions were performed at 32° C. in 384-well plates using a reaction volume of 51 μl and the following assay buffer conditions: 50 mM HEPES (2-[4-(2-hydroxyethyl)piperazin-1-yl]ethanesulfonic acid) pH 8.0, 50 mM aqueous solution of ammonium sulfate, 1 mM ethylenediaminetetraacetic acid, 2 mM dithiothreitol, 0.01% bovine serum albumine, 0.005% Brij 35 detergent, 0.5 μM PLP (pyridoxalphosphate), 10 μM NADH, and 50 μM α-ketoglutarate), and 100 μM leucine. […] Test compounds were used in a concentration range between 0.005 and 30 μM. The final DMSO concentration was 2%.
(§4) The reaction was initiated by addition of substrates (Leucine, α-KG, NADH).

MDA-MB231 cells = test: In vitro assay 2: BCAT cellular assay, leucine in medium of MDA-MB231 cells; format: cell-based; conditions: 24 hours incubation, leucine level in medium (LeuDH/diaphorase/resazurin readout), read-out: MDAMB-231 IC50
Method: (§5) In Vitro Assay 2: BCAT Cellular Assay
(§6) Levels of leucine were measured in medium of different tumor cell lines. The enzyme BOAT (Branched chain amino acid transferase) catalyzes the consumption of leucine.
(§7) Cells (U87-MG and MDA-MB231 from ATCC) were grown in Dulbecco's Modified Eagle Medium (DMEM) containing 10% fetal calf serum. They were harvested by trypsin and seeded into 96-well plates. Cells were incubated overnight at 37° C. in an atmosphere containing 5% carbon dioxide. The next day test compounds were added to each cell well. The final concentration of dimethylsulfoxide (DMSO) was 0.1% and DMSO controls were included. The plates were then placed in an incubator for 24 hours.
(§8) Leucine was measured in an enzymatic readout with leucine dehydrogenase (LeuDH) and diaphorase. Medium is deproteinized with perchloric acid. 30 μl of 1 M aqueous perchloric acid was added to each well and the plates were centrifuged.

[2] = molecular target: T2, recombinant human BCAT2 enzyme (Homo sapiens, UniProt O15382); test: In vitro assay 1b: BCAT2 biochemical assay (coupled LeuDH/NADH fluorescence readout); for BCAT2 IC50 [M]: recombinant human BCAT2 0.75 nM
T2 construct: purchased ATGen (South Korea) ATGP1523
T2 sequence (O15382 28-392): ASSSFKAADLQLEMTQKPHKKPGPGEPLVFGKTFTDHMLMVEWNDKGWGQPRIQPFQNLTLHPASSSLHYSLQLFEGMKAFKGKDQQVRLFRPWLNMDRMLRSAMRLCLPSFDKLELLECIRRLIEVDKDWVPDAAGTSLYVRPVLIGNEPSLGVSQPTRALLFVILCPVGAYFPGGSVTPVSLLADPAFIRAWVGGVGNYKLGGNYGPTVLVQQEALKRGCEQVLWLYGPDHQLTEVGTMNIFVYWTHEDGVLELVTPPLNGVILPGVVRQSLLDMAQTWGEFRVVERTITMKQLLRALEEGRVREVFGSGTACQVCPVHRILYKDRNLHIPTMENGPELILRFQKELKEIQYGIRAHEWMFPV
Method: as §1, §2, §3, §4

U87-MG cells = test: In vitro assay 2: BCAT cellular assay, leucine in medium of U87-MG cells; format: cell-based; conditions: Homo sapiens, U-87 MG, 24 h, 24 hours incubation, leucine level in medium (LeuDH/diaphorase/resazurin readout)
Method: as §5, §6, §7, §8

[3] = recombinant human BCAT1 […], 32° C., 100 μM leucine, 50 μM α-ketoglutarate, NADH fluorescence over 90 min, read-out: BCAT1 IC50
[4] = recombinant human BCAT2 […], 32° C., 100 μM leucine, 50 μM α-ketoglutarate, NADH fluorescence over 90 min, read-out: BCAT2 IC50

| IC50 (MDA-MB231 cells; Homo sapiens, MDA-MB-231, 24 h) [µM] | IC50 (MDA-MB231 cells) [µM] | IC50 [1, 3] [M] | IC50 [2, 4] [M] | IC50 (U87-MG cells) [µM] | SMILES | IC50 ([1]; BCAT1 IC50 [M]) [M] | IC50 ([2]; BCAT2 IC50 [M]) [M] |
| --- | --- | --- | --- | --- | --- | --- | --- |
| > 30 | – | 2e-07 | 3.5e-06 | – | COc1cc(C#N)c(Oc2ccccc2C)cc1-n1c(=O)cc(Br)[nH]c1=O (racemic) [Example 19, 4-[4-Bromo-2,6-dioxo-3,6-dihydropyrimidin-1(2H)-yl]-5-methoxy-2-(2-methylphenoxy)benzonitrile (rac)] | – | – |
| 30 | > 30 | 1.8e-07 | – | – | COc1cc(C#N)c(Oc2ccccc2C)cc1-n1c(=O)cc(C2CC2)[nH]c1=O (racemic) [Example 23, 4-(4-Cyclopropyl-2,6-dioxo-3,6-dihydropyrimidin-1(2H)-yl)-5-methoxy-2-(2-methylphenoxy)benzonitrile (rac)] | – | – |
| > 30 | 20 | 4.38e-07 | 4.33e-06 | – | COc1cc(Cl)c(Oc2ccccc2C)cc1-n1c(=O)cc(C(F)(F)F)[nH]c1=O (racemic) [Example 27, 3-[4-Chloro-2-methoxy-5-(2-methylphenoxy)phenyl]-6-(trifluoromethyl)pyrimidine-2,4(1H,3H)-dione (rac)] | – | – |
| > 30 | – | 7.25e-07 | 1e-05 | – | COc1cc(C#N)c(Oc2ccccc2C)cc1-n1c(=O)cc(-c2ccccc2)[nH]c1=O (racemic) [Example 42, 4-(2,6-Dioxo-4-phenyl-3,6-dihydropyrimidin-1(2H)-yl)-5-methoxy-2-(2-methylphenoxy)benzonitrile (rac)] | – | – |
| – | – | 4.5e-06 | – | > 30 | COc1cc(C#N)c(Oc2ccccc2C)cc1-n1c(=O)cc(-c2ccc(C(F)(F)F)cc2)[nH]c1=O (racemic) [Example 69, 4-{2,6-Dioxo-4-[4-(trifluoromethyl)phenyl]-3,6-dihydropyrimidin-1(2H)-yl}-5-methoxy-2-(2-methylphenoxy)benzonitrile (rac)] | – | – |
| > 30 | 20 | – | 4.52e-07 | – | COc1cc(C#N)c(Oc2ccccc2C)cc1-n1c(=O)cc(S(=O)(=O)c2ccccc2)[nH]c1=O (racemic) [Example 76, 4-[4-(Benzenesulfonyl)-2,6-dioxo-3,6-dihydropyrimidin-1(2H)-yl]-5-methoxy-2-(2-methylphenoxy)benzonitrile (rac)] | – | – |
| > 30 | – | 7e-07 | 4e-06 | – | COc1cc(C#N)c(Oc2ccccc2C)cc1-n1c(=O)cc(S(C)(=O)=O)[nH]c1=O (racemic) [Example 79, 4-[4-(Methanesulfonyl)-2,6-dioxo-3,6-dihydropyrimidin-1(2H)-yl]-5-methoxy-2-(2-methylphenoxy)benzonitrile (rac)] | – | – |
| – | 27 | 2.35e-06 | 2.3e-05 | – | COc1cc(C#N)c(Oc2ccccc2C)cc1-n1c(=O)cc(Br)[nH]c1=O (single isomer, unassigned) [Example 20, 4-[4-Bromo-2,6-dioxo-3,6-dihydropyrimidin-1(2H)-yl]-5-methoxy-2-(2-methylphenoxy)benzonitrile (atrop 1)] | – | – |
| > 30 | – | 6.5e-07 | 3.2e-06 | – | Cc1ccccc1Oc1cc(-n2c(=O)cc(C(F)(F)F)[nH]c2=O)cnc1C#N [Example 47, 5-[2,6-Dioxo-4-(trifluoromethyl)-3,6-dihydropyrimidin-1(2H)-yl]-3-(2-methylphenoxy)pyridine-2-carbonitrile] | – | – |
| 25 | – | 6.97e-07 | 4.15e-06 | – | Cc1cccc(C)c1Oc1cc(-n2c(=O)cc(C(F)(F)F)[nH]c2=O)ccc1C#N [Example 48, 2-(2,6-Dimethylphenoxy)-4-[2,6-dioxo-4-(trifluoromethyl)-3,6-dihydropyrimidin-1 (2H)-yl]benzonitrile] | – | – |
| > 30 | – | 6.98e-07 | 4.93e-06 | – | Cc1ccccc1Oc1cc(-n2c(=O)cc(-c3ccccc3)[nH]c2=O)c(F)cc1C#N [Example 49, 4-(2,6-Dioxo-4-phenyl-3,6-dihydropyrimidin-1(2H)-yl)-5-fluoro-2-(2-methylphenoxy)benzonitrile] | – | – |
| > 30 | – | – | – | – | N#Cc1cc(F)c(-n2c(=O)cc(C(F)(F)F)[nH]c2=O)cc1Oc1c(F)cccc1F [Example 63, 2-(2,6-Difluorophenoxy)-4-[2,6-dioxo-4-(trifluoromethyl)-3,6-dihydropyrimidin-1 (2H)-yl]-5-fluorobenzonitrile] | – | – |
| > 30 | – | 5e-07 | 5.5e-06 | – | Cc1cccc(N)c1Oc1cc(-n2c(=O)cc(C(F)(F)F)[nH]c2=O)c(F)cc1C#N [Example 65, 2-(2-Amino-6-methylphenoxy)-4-[2,6-dioxo-4-(trifluoromethyl)-3,6-dihydropyrimidin-1(2H)-yl]-5-fluorobenzonitrile] | – | – |
| – | – | 6.7e-06 | 4.9e-05 | – | Cc1ccc(Oc2cc(-n3c(=O)cc(C(F)(F)F)[nH]c3=O)c(F)cc2C#N)c(C)c1 [Example 66, 2-(2,4-Dimethylphenoxy)-4-[2,6-dioxo-4-(trifluoromethyl)-3,6-dihydropyrimidin-1(2H)-yl]-5-fluorobenzonitrile] | – | – |
| > 30 | – | 2e-06 | 2.5e-05 | – | Cc1ccccc1Oc1cc(-n2c(=O)cc(C3CC3)[nH]c2=O)c(F)cc1C#N [Example 72, 4-(4-Cyclopropyl-2,6-dioxo-3,6-dihydropyrimidin-1(2H)-yl)-5-fluoro-2-(2-methylphenoxy)benzonitrile] | – | – |
| – | – | 2.7e-06 | 1.6e-05 | – | Cc1ccccc1Oc1cc(-n2c(=O)cc(S(C)(=O)=O)[nH]c2=O)c(F)cc1C#N [Example 75, 5-Fluoro-4-[4-(methanesulfonyl)-2,6-dioxo-3,6-dihydropyrimidin-1(2H)-yl]-2-(2-methylphenoxy)benzonitrile] | – | – |

| SMILES | IC50 (MDA-MB231 cells; Homo sapiens, MDA-MB-231, 24 h) [µM] | IC50 (MDA-MB231 cells) [µM] | IC50 [1, 3] [M] | IC50 [2, 4] [M] | IC50 (U87-MG cells) [µM] | IC50 ([1]; BCAT1 IC50 [M]) [M] | IC50 ([2]; BCAT2 IC50 [M]) [M] |
| --- | --- | --- | --- | --- | --- | --- | --- |
| COc1cc(C#N)c(Oc2ccccc2C)cc1-n1c(=O)cc(C(F)(F)F)[nH]c1=O (racemic) [Example 4, 4-[2,6-Dioxo-4-(trifluoromethyl)-3,6-dihydropyrimidin-1(2H)-yl]-5-methoxy-2-(2-methylphenoxy)benzonitrile (rac)] | > 30 | – | – | – | – | 1.62e-07 | – |
| Cc1ccccc1Oc1cc(-n2c(=O)cc(C(F)(F)F)[nH]c2=O)c(C)cc1C#N (racemic) [Example 7, 4-[2,6-Dioxo-4-(trifluoromethyl)-3,6-dihydropyrimidin-1(2H)-yl]-5-methyl-2-(2-methylphenoxy)benzonitrile (rac)] | 30 | > 30 | – | – | – | 2.87e-07 | 1.8e-06 |
| COc1cc(C#N)c(Oc2ccccc2C)cc1-n1c(=O)cc(C(F)(F)F)[nH]c1=O (single isomer, unassigned) [Example 6, 4-[2,6-Dioxo-4-(trifluoromethyl)-3,6-dihydropyrimidin-1 (2H)-yl]-5-methoxy-2-(2-methylphenoxy)benzonitrile (atrop 2)] | – | > 30 | – | – | – | 6.25e-07 | – |
| Cc1ccccc1Oc1cc(-n2c(=O)cc(S(=O)(=O)c3ccccc3)[nH]c2=O)c(F)cc1C#N [Example 74, 4-[4-(Benzenesulfonyl)-2,6-dioxo-3,6-dihydropyrimidin-1(2H)-yl]-5-fluoro-2-(2-methylphenoxy)benzonitrile] | > 30 | 30 | – | – | – | – | – |
